This passage reports change in vivo results from patent US20160083380A1, “OXIMINO DERIVATIVES FOR THE TREATMENT OF DYSLIPIDEMIA” (CADILA HEALTHCARE LIMITED, priority 2013, published 2016).

Molecules are shown by their SMILES. Read-outs that look alike come from different tables or passages of the source.

The assay has as its system high fat diet C57 mice. The assay is described as follows: LDL-C lowering activity in high fat diet C57 mice. The settings on record: Mus musculus, po, 672 h, C57 mice on high fat diet, orally once a day, dose 30 mg (30 mpk), blood collected on day 28 of treatment. In kind it is in vivo. The method, then: LDL-C Lowering Activity—in High Fat Diet C57 Mice
The in-vivo LDL-c lowering for test compound was tested in C57 mice which were kept on high fat diet for 4 weeks and the blood was collected by retro-orbital sinus puncture method under light ether anesthesia on day 0 (pretreatment). Animal are grouped based on LDL-c levels, after that 4-6 week treatment with vehicle or test compound orally at a dose of 30 mpk dose once a day was given. On completion of treatment on day 28 of the treatment the blood was collected for LDL-c and TC levels measurement. The percent change in LDL-c and TC in test compound group Vs Vehicle group was calculated.

The mark [1] stands for this setting: read-out: % Change Vs Vehicle Control LDL-c.
[2] abbreviates: read-out: % Change Vs Vehicle Control TC.

With `C/C(=N\OCc1ccc(C(F)(F)F)cc1)c1ccc(OCc2nnn[nH]2)cc1` [Example 1, 1-(4-((1H-tetrazol-5-yl)methoxy)phenyl)ethanone O-(4-(trifluoromethyl)benzyl)oxime], the change in vivo at 30 mg/kg runs as follows: under setting [1], -50 ± 4%; under setting [2], -24 ± 4%.

`C/C(=N\OCc1ccc(C(F)(F)F)cc1)c1ccc(OCc2nnn(C)n2)cc1` [Example 2, 1-(4-((2-Methyl-2H-tetrazol-5-yl)methoxy)phenyl)ethanone O-(4-(trifluoromethyl)benzyl)oxime]: the change in vivo at 30 mg/kg by setting is: under setting [1], -29 ± 6%; under setting [2], -14 ± 3%.

With `C/C(=N\OCc1ccc(C(F)(F)F)cc1)c1ccc(OCc2nnnn2C)cc1` [Example 3, 1-(4-((1-Methyl-H-tetrazol-5-yl)methoxy)phenyl)ethanone O-(4-(trifluoromethyl)benzyl)oxime], the change in vivo at 30 mg/kg was -5 ± 8% under setting [1] and -1 ± 3% under setting [2].

With `CC(=NOCc1ccc(C(F)(F)F)cc1)c1ccc(OCc2nnn[nH]2)nc1` [Example 4, 1-(6-((1H-tetrazol-5-yl)methoxy)pyridin-3-yl)ethanone O-(4-(trifluoromethyl)benzyl)oxime], the change in vivo at 30 mg/kg is, setting by setting: under setting [1], -66 ± 2%; under setting [2], -41 ± 4%.

`C/C(=N\OCc1ccc(C(F)(F)F)cc1)c1ccc(OCc2cnn[nH]2)cc1` [Example 6, 1-(4-((1H-1,2,3-triazol-5-yl)methoxy)phenyl)ethanone O-(4-(trifluoromethyl)benzyl)oxime]: the change in vivo at 30 mg/kg is, setting by setting: under setting [1], -30 ± 5%; under setting [2], -11 ± 2%.

Turning to `C/C(=N\OCc1ccc(C(F)(F)F)cc1)c1ccc(OCc2nnc(C)o2)cc1` [Example 7, 1-(4-((5-Methyl-1,3,4-oxadiazol-2-yl)methoxy)phenyl)ethanone O-(4-(trifluoromethyl)benzyl)oxime], the change in vivo at 30 mg/kg under setting [1] is -34 ± 7% and the change in vivo at 30 mg/kg under setting [2] is -10 ± 7%.

In the case of `C/C(=N\OCc1ccc(C(F)(F)F)cc1)c1ccc(OCc2nnc(C)[nH]2)nc1` [Example 18, 1-(6-((5-Methyl-4H-1,2,4-triazol-3-yl)methoxy)pyridin-3-yl)ethanone O-(4-(trifluoromethyl)benzyl)oxime], the change in vivo at 30 mg/kg under setting [1] is -23 ± 6% and the change in vivo at 30 mg/kg under setting [2] was -11 ± 3%.

As to `C/C(=N\OCc1ccc(C(F)(F)F)cc1)c1ccc(OCc2nnc(N)o2)cc1` [Example 20, 1-(4-((5-Amino-1,3,4-oxadiazol-2-yl)methoxy)phenyl)ethanone O-(4-(trifluoromethyl)benzyl)oxime], the change in vivo at 30 mg/kg runs as follows: under setting [1], -29 ± 5%; under setting [2], -13 ± 2%.

In the case of `C/C(=N\OCc1ccc(C(C)(F)F)cc1)c1ccc(OCc2nnn[nH]2)cc1` [Example 22, 1-(4-((1H-tetrazol-5-yl)methoxy)phenyl)ethanone O-(4-(1,1-difluoroethyl)benzyl)oxime], the change in vivo at 30 mg/kg reads like this: under setting [1], -61 ± 3%; under setting [2], -30 ± 3%.

For `COc1cc(CO/N=C(\C)c2ccc(OCc3nnn[nH]3)cc2)ccc1C(F)(F)F` [Example 25, 1-(4-((1H-tetrazol-5-yl)methoxy)phenyl)ethanone O-(3-methoxy-4-(trifluoromethyl)benzyl)oxime], the change in vivo at 30 mg/kg was -54 ± 3% under setting [1] and -21 ± 2% under setting [2].

For `C/C(=N\OCc1ccc(C(F)(F)F)cc1)c1ccc(OCc2nnn[nH]2)cc1O` [Example 27, 1-(4-((1H-tetrazol-5-yl)methoxy)-2-hydroxyphenyl) ethanone O-(4-(trifluoromethyl)benzyl)oxime], the change in vivo at 30 mg/kg is -50 ± 5% under setting [1] and -25 ± 3% under setting [2].

Take `C/C(=N\OCc1ccc(C(F)(F)F)cc1)c1ccc(OCc2nnnn2C)cc1O` [Example 29, 1-(2-Hydroxy-4-((1-methyl-1H-tetrazol-5-yl)methoxy)phenyl)ethanone O-(4-(trifluoromethyl)benzyl)oxime]: the change in vivo at 30 mg/kg reads like this: under setting [1], -14 ± 6%; under setting [2], -5 ± 3%.

With `C/C(=N\OCc1ccc(F)cc1)c1ccc(OCc2nnn[nH]2)cc1` [Example 31, 1-(4-((1H-tetrazol-5-yl)methoxy)phenyl)ethanone O-(4-fluorobenzyl)oxime], the change in vivo at 30 mg/kg under setting [1] was -26 ± 10% and the change in vivo at 30 mg/kg under setting [2] is -7 ± 4%.

Consider `C/C(=N\OCc1ccc(C(F)(F)F)cc1)c1ccc(OCc2nnn[nH]2)nc1Cl` [Example 36, 1-(6-((1H-tetrazol-5-yl)methoxy)-2-chloropyridin-3-yl)ethanone O-(4-(trifluoromethyl)benzyl)oxime], for which the change in vivo at 30 mg/kg under setting [1] is -39 ± 5% and the change in vivo at 30 mg/kg under setting [2] is -12 ± 3%.

As for `CCn1nnc(COc2ccc(/C(C)=N/OCc3ccc(C(F)(F)F)cc3)cc2)n1` [Example 41, 1-(4-((2-Ethyl-2H-tetrazol-5-yl)methoxy)phenyl)ethanone O-(4-(trifluoromethyl)benzyl)oxime], the change in vivo at 30 mg/kg under setting [1] is -36 ± 6% and the change in vivo at 30 mg/kg under setting [2] was -11 ± 5%.

For the compound `CCn1nnnc1COc1ccc(/C(C)=N/OCc2ccc(C(F)(F)F)cc2)cc1` [Example 42, 1-(4-((1-Ethyl-2H-tetrazol-5-yl)methoxy)phenyl)ethanone O-(4-(trifluoromethyl)benzyl)oxime], the change in vivo at 30 mg/kg runs as follows: under setting [1], -22 ± 9%; under setting [2], 1 ± 6%.

`C/C(=N\OCc1ccc(C(C)(F)F)cc1)c1ccc(OCc2nnn[nH]2)nc1` [Example 43, 1-(6-((1H-tetrazol-5-yl)methoxy)pyridin-3-yl) ethanone O-(4-(1,1-difluoroethyl)benzyl)oxime]: the change in vivo at 30 mg/kg was -67 ± 1% under setting [1] and -38 ± 2% under setting [2].

On to `CCn1nnc(COc2ccc(/C(C)=N/OCc3ccc(C(C)(F)F)cc3)cn2)n1` [Example 44, 1-(6-((2-Ethyl-2H-tetrazol-5-yl)methoxy)pyridin-3-yl)ethanone O-(4-(1,1-difluoroethyl)benzyl)oxime], for which the change in vivo at 30 mg/kg under setting [1] is -50 ± 5% and the change in vivo at 30 mg/kg under setting [2] is -17 ± 3%.

For the compound `CCn1nnc(COc2ccc(/C(C)=N/OCc3ccc(C(F)(F)F)cc3)cn2)n1` [Example 46, 1-(6-((2-Ethyl-2H-tetrazol-5-yl)methoxy)pyridin-3-yl)ethanone O-(4-(trifluoromethyl)benzyl)oxime], the change in vivo at 30 mg/kg under setting [1] was -41 ± 4% and the change in vivo at 30 mg/kg under setting [2] is -20 ± 2%.

`C/C(=N\OCc1ccc(C(F)(F)F)cc1)c1ccc(OCc2nnn(C(C)C)n2)nc1` [Example 48, 1-(6-((2-isoPropyl-2H-tetrazol-5-yl)methoxy)pyridin-3-yl)ethanone O-(4-(trifluoromethyl)benzyl)oxime]: the change in vivo at 30 mg/kg under setting [1] is -47 ± 7% and the change in vivo at 30 mg/kg under setting [2] is -17 ± 3%.

As to `C/C(=N\OCc1ccc(C(F)(F)F)cc1)c1ccc(OCc2nnn(CC3CC3)n2)nc1` [Example 50, 1-(6-((2-(Cyclopropylmethyl)-2H-tetrazol-5-yl)methoxy)pyridin-3-yl)ethanone O-(4-(trifluoromethyl)benzyl)oxime], the change in vivo at 30 mg/kg runs as follows: under setting [1], -47 ± 4%; under setting [2], -18 ± 3%.

As for `C/C(=N\OCc1ccc(C(F)(F)F)cc1)c1ccc(OCc2nnn(CC3CCCCC3)n2)nc1` [Example 52, 1-(6-((2-(Cyclohexylmethyl)-2H-tetrazol-5-yl)methoxy)pyridin-3-yl)ethanone O-(4-(trifluoromethyl)benzyl)oxime], the change in vivo at 30 mg/kg by setting is: under setting [1], -18 ± 11%; under setting [2], -2 ± 5%.

For the compound `C/C(=N\OCc1ccc(C(F)(F)F)cc1)c1ccc(OCc2nnnn2CC(=O)O)nc1` [Example 56, 2-(5-(((5-(1-(((4-(Trifluoromethyl)benzyl)oxy)imino)ethyl)pyridin-2-yl)oxy)methyl)-1H-tetrazol-1-yl)acetic acid], the change in vivo at 30 mg/kg is, setting by setting: under setting [1], -22 ± 5%; under setting [2], -16 ± 4%.

For `C/C(=N\OCc1ccc(C(C)(F)F)cc1)c1ccc(OCc2nnn(C(C)C)n2)nc1` [Example 58, 1-(6-((2-isoPropyl-2H-tetrazol-5-yl)methoxy)pyridin-3-yl)ethanone O-(4-(1,1-difluoroethyl)benzyl)oxime], the change in vivo at 30 mg/kg under setting [1] was -36 ± 6% and the change in vivo at 30 mg/kg under setting [2] was -7 ± 2%.

Regarding `C/C(=N\OCc1ccc(C(C)(F)F)cc1)c1ccc(OCc2nnn(CC3CC3)n2)nc1` [Example 60, 1-(6-((2-(Cyclopropylmethyl)-2H-tetrazol-5-yl)methoxy)pyridin-3-yl)ethanone O-(4-(1,1-difluoroethyl)benzyl)oxime], the change in vivo at 30 mg/kg is, setting by setting: under setting [1], -49 ± 3%; under setting [2], -17 ± 3%.
